Test results taken from patent US9363996B2, “Compositions and method for blocking ethylene response in field crops using 3-(cy-clopropyl-l-enyl)-propanoic salt” (Yissum Research Development Company of the Hebrew …, priority 2009, dated 2016).

What was measured:
[1] = test system: wheat plants; assay: Wheat grain weight at the milky stages after Ethephon treatment; assay type: in vivo, wheat (Triticum turgidum var. 'Gdera'); conditions: for grain yield increase by antagonizing Ethephon: fresh weight basis
Description: (1) Abscission—This is a very sensitive model system for studying the effects of plant hormones. Ethylene induces the process of abscission, while auxin delays it. In the laboratory the experimental system is based on plant organ explants, which include the abscission zone. Abscission is induced by exposure to ethylene and at the termination of the experiment the number of abscised organs, usually either leaf blades or petioles are counted and the fraction of abscission is calculated. In the case of fruit, the decrease in fruit retention force is analyzed. In cotton, when WS-CPD (the ethylene-action antagonist herein disclosed) is tested, the whole plants or explants are pretreated by spraying with the antagonist, dissolved in a phosphate buffer solution (10-20 mM, pH 7.0) including 0.1% commercially available Kinetic™ as surfactant, and left to incubate for a predetermined time, usually between 6 and 24 h. The plants or explants are then further exposed for 24 h to ethylene gas (5 to 20 μL L^−1). The plants or explants are then ventilated and incubated for the required time under controlled conditions. At the end of the experiment the percentage of abscission is determined. (2) Chlorophyll degradation—This is a standard model for studying senescence. Plant material (whole plants, excised leaves or leaf discs) are pretreated. In cotton, tobacco and wheat, when WS-CPD is tested, the whole plants or explants are pretreated by spraying with the antagonist, dissolved in phosphate buffer solution (10-20 mM, pH 7.0) including 0.1% commercially available Kinetic™ surfactant, and left to incubate for a predetermined time, usually between 6 and 241. The plants or explants are then further exposed for 24 h to ethylene gas (1 to 100 μL L^−1), or sprayed with Ethephon™ (wheat; 250 to 750 μL L^−1). The plants or explants are then ventilated and incubated for the required time under controlled conditions. At the end of the experiment a dimethylsulfoxide (DMSO) extract of the plant tissue is prepared, and the chlorophyll content of the extract is determined by spectrophotometric analysis. The chlorophyll content is reported either on a fresh, dry weight basis, or on a surface area basis. (3) Epinasty—This is also one of the classical methods for studying ethylene effects in plants. The extent of ethylene-induced epinasty of leaves is determined by measuring the change of the angle between the petiole and the stem shoot or blade. After exposure of the intact plant to ethylene, the upright grown leaves bend downward. The increase in the angle values (degrees) between petiole and the stem is used as a measure of the effect of the ethylene. When WS-CPD is tested on cotton and wheat plants, the whole plants are pretreated by spraying with the antagonist dissolved in phosphate buffer solution (10-20 mM, pH 7.6) including 0.1% Kinetic™ as surfactant, and left to incubate for a predetermined time, usually between 6 and 24 h. The plants are then further exposed for 24 h to ethylene gas (cotton, 5 to 10 μL L^−1), or sprayed with Ethephon™ (wheat, 250 to 750 μL L^−1). The plants are then ventilated and incubated for the required time under controlled conditions. The epinastic effect is expressed by measuring the degree values of the downward curvature between the blade and petiole (cotton, FIGS. 1-3) or between the blade and the stem (wheat, FIGS. 31 and 32). (4) Wheat Grain yield—This is a common test of the effects of exposure of monocot plants either to environmental stresses such as drought that induce senescence by increasing endogenous ethylene production. Excessive internal or external ethylene will accelerate senescence which will lead to reduced grain yield. In this project the intact plants were grown in the greenhouse up to the spike hading at milky stage I and II. The plants were then sprayed with the dissolved WS-CPD in phosphate buffer solution (10 mM, pH 7.6) including 0.1% Kinetic™ as surfactant. Young Cotton Seedlings […]

[2] = test system: young cotton seedlings; assay: Ethylene-induced chlorophyll degradation in young cotton seedlings; assay type: in vivo, cotton (Gossyium hirsutum barbadense L.); conditions: for increase of chlorophyll content compared with the untreated control: ethylene 10 μL L^−1
Description: (1) Abscission-This is a very sensitive model system for studying the effects of plant hormones. Ethylene induces the process of abscission, while auxin delays it. In the laboratory the experimental system is based on plant organ explants, which include the abscission zone. Abscission is induced by exposure to ethylene and at the termination of the experiment the number of abscised organs, usually either leaf blades or petioles are counted and the fraction of abscission is calculated. In the case of fruit, the decrease in fruit retention force is analyzed. […] The plants or explants are then further exposed for 24 h to ethylene gas (5 to 20 μL L^-1). The plants or explants are then ventilated and incubated for the required time under controlled conditions. At the end of the experiment the percentage of abscission is determined. […] Plant material (whole plants, excised leaves or leaf discs) are pretreated. […] The plants or explants are then ventilated and incubated for the required time under controlled conditions. At the end of the experiment a dimethylsulfoxide (DMSO) extract of the plant tissue is prepared, and the chlorophyll content of the extract is determined by spectrophotometric analysis. The chlorophyll content is reported either on a fresh, dry weight basis, or on a surface area basis. (3) Epinasty-This is also one of the classical methods for studying ethylene effects in plants. The extent of ethylene-induced epinasty of leaves is determined by measuring the change of the angle between the petiole and the stem shoot or blade. After exposure of the intact plant to ethylene, the upright grown leaves bend downward. […] The plants are then ventilated and incubated for the required time under controlled conditions. The epinastic effect is expressed by measuring the degree values of the downward curvature between the blade and petiole (cotton, FIGS. 1-3) or between the blade and the stem (wheat, FIGS. 31 and 32). […] In this project the intact plants were grown in the greenhouse up to the spike […] stage I and II. […] Young Cotton Seedlings […] The content of chlorophyll in the leaf blades of the treated plants remained the same as in the untreated control (FIGS. 5 and 6).

O=C([O-])CCC1=CC1.[Na+] [WS-CPD, 3-cyclopropyl-1-enyl-propanoic sodium salt]
Ethephon-induced decrease of grain weight ([1]; WS-CPD 135 μg mL^−1 pretreatment at milky stage I, both milky stages): prevented the decrease | overcoming the Ethephon reduction in grain weight ([1]; WS-CPD 80 to 180 μg mL^−1): best results | grain yield increase by antagonizing Ethephon ([1]; milky stage I): ca. 5% | grain yield increase by antagonizing Ethephon ([1]; milky stage II): ca. 16% | ethylene-induced chlorophyll degradation ([2]; WS-CPD 10 μg mL^−1 pretreatment, ethylene 10 μL L^−1 24 h): completely antagonized | increase of chlorophyll content compared with the untreated control ([2]; WS-CPD 30 μg L^−1 (so in the source)): 20% | increase of chlorophyll content compared with the untreated control ([2]; WS-CPD 100 μg L^−1 (so in the source)): 28% | ethylene-induced chlorophyll degradation ([2]; higher concentrations of WS-CPD (up to 300 μg mL^−1)): less effective
